Consider one compound from publication PMC6289105 (Organic & Biomolecular Chemistry, 2018).

SMILES strings stand for the structures.

The subject of this test is Helix pomatia agglutinin (HPA). In words: Bio-layer interferometry. Format: binding. The conditions noted are these: SA and SSA sensors; monovalent reference and negative control. (In BLI a coated tip is dipped into the sample, and binding shifts an interference pattern.)

Turning to `CC(=O)N[C@H]1C(O)O[C@H](CO)[C@H](O)[C@@H]1O` (stereo partly shown) [GalNAc], the BLI binding signal result is given as “no detectable signal”.
